# From patent publication US8349577B2, “Method for evaluating blood-neural barrier permeability” (Research Foundation For Mental Hygiene, Inc., priority 2010, dated 2013)
# “Also recorded” adds a separate entry of the source.
# Key:
# recombinant sPLA2 = test: Continuous fluorescence PLA2 activity assay with recombinant sPLA2 (Bis-BODIPY FL C11-PC-labeled DOPC liposomes); assay type: biochemical; settings: for Inhibition of PLA2 activity from recombinant sPLA2: recombinant sPLA2 incubated with inhibitor, FIGS. 3A-3C
# Protocol: (§1) PLA2 activity assays were carried out in triplicates using a continuous fluorescent measurement. In a 96-well microplate, 5 μL lumbar CSF (or 10 μM recombinant sPLA2) was diluted in 90 μL PLA2 assay buffer (10 mM Tris-HCl, pH 7.4; 100 mM KCl; 5 mM CaCl2; 1 mM DTT). Then, 5 μL Bis-BODIPY® FL C11-PC-labeled 100% DOPC liposomes were added to each well and the microplate was immediately placed in a temperature controlled (30° C.) cytofluor multi-well plate reader series 4000 (PerSeptive Biosystems®, Foster City, Calif.). The fluorescence intensity was recorded over 90 min (91 cycles of 60 sec each) at 485 nm excitation and 530 nm emission. Finally, PLA2 activity was evaluated using linear curve fitting with Graph Prism 3.0 (GraphPad Software™, San Diego, Calif.).
# (§2) Although there are currently twenty-two different PLA2 enzymes classified in five families (sPLA2, cPLA2, iPLA2, PAF-AH and lysosomal PLA2), there is currently no known tool for the specific characterization of each of these isozymes. Thus, to characterize the activity of each new PLA2 the current approach is to determine to which family the PLA2 enzyme belongs. For this purpose, a battery of inhibitors more or less specific against each PLA2 family is generally used to discriminate one family from another.
# (§3) Stock solutions and serial dilutions of PLA2 inhibitors (AACOCF3, BEL and Thioetheramide-PC) were prepared in PLA2 assay buffer supplemented by 4.25 mM Triton X-100. Each assay was carried out in the absence or presence of 5 μL of the appropriate inhibitor.
# [1] = system: PLA2 activity in lumbar CSF; test: Continuous fluorescence PLA2 activity assay with lumbar CSF (Bis-BODIPY FL C11-PC-labeled DOPC liposomes); assay type: biochemical, human; settings: for Inhibition of PLA2 activity from lumbar CSF: 5 μL lumbar CSF incubated with inhibitor, FIGS. 3A-3C
# Protocol: as §1, §2, §3
# [2] = various concentrations of calcium, FIG. 3D
Compound,Inhibition of PLA2 activity from recombinant sPLA2 (recombinant sPLA2),Inhibition of PLA2 activity from lumbar CSF [1],Effect of increasing calcium concentration on recombinant sPLA2 activity (recombinant sPLA2; [2]),"Effect of increasing calcium concentration on PLA2 activity in lumbar CSF [1, 2]"
CCCCC/C=C\C/C=C\C/C=C\C/C=C\CCCC(=O)C(F)(F)F [AACOCF3],failed to do so,not and failed to do so,,
O=C1O/C(=C/Br)CCC1c1cccc2ccccc12 (centres unmarked) [BEL],failed to do so,not and failed to do so,,
CCCCCCCCCCCCCCCCSC[C@H](COP(=O)(O)OCC[N+](C)(C)C)NC(=O)CCCCCCCCCCCCCCC [thioetheramide-PC],dose-dependently inhibited,strongly inhibited; also recorded: dose-dependently inhibited,,
calcium,,,increase of PLA2 activity,increase of PLA2 activity
